Results as given in publication PMC5824918, “HMG-CoA reductase from Camphor Tulsi (Ocimum kilimandscharicum) regulated MVA dependent biosynthesis of diverse terpenoids in homologous and heterologous plant systems” (Scientific Reports, 2018).

System: T1, OkHMGR
T1 construct: gene HMGR; cDNA from leaf
Assay: spectrophotometric NADPH oxidation at […] nm, Lineweaver-Burk plot
Format: biochemical, Ocimum kilimandscharicum
Details: 7.5 mM DTT, 150 mM potassium phosphate pH 7.0, 30 °C

Km (co-substrate NADPH (3.0 mM in standard assay))	Km (co-substrate HMG-CoA (0.05 mM in standard assay))	Structure (SMILES)
88 µM		CC(C)(COP(=O)(O)OP(=O)(O)OC[C@H]1O[C@@H](n2cnc3c(N)ncnc32)[C@H](O)[C@@H]1OP(=O)(O)O)[C@@H](O)C(=O)NCCC(=O)NCCSC(=O)C[C@@](C)(O)CC(=O)O [HMG-CoA]
	903 µM	NC(=O)C1=CN([C@@H]2O[C@H](COP(=O)(O)OP(=O)(O)OC[C@H]3O[C@@H](n4cnc5c(N)ncnc54)[C@H](OP(=O)(O)O)[C@@H]3O)[C@@H](O)[C@H]2O)C=CC1 [NADPH]
